Converted amounts (≈) assume the structure as drawn. Residues, ends and D or L forms follow the SMILES beside them.
Experiments:
E. faecium ATCC51559 = format: cell-based, Enterococcus faecium; conditions: ATCC51559
Description: (§1) Bacterial strains used in this study included Enterococcus faecium ATCC51559, Staphylococcus aureus USA300 LAC, Klebsiella pneumoniae ATCC 13883, Acinetobacter baumannii B2367-12, Pseudomonas aeruginosa PAO1, Enterobacter cloacae B2366-12 and Escherichia coli ATCC 25922, wherein the first six constituting the ESKAPE pathogens. Tryptic soy broth (TSB) for bacterial growth was obtained from BD Bioscience (Sparks, Md.).
(§2) The antibacterial activity of peptides was evaluated using a standard broth microdilution protocol as described (Wang et al. (2012) Antimicrob. Agents Chemother., 56:845-856). In brief, 5 μl of each bacterium (stored at −80° C.) were inoculated into TSB medium (2 ml) and grown overnight. A second inoculation was made in the morning by delivering 10 μl of the overnight culture to a fresh TSB medium. After 2-3 hours growth at 37° C., 225 rpm, logarithmic phase bacterial cultures (OD600≈0.5) were diluted and partitioned into a 96-well polystyrene microplate with ˜10^5 colony forming units (CFU) per well (90 μl aliquots). After treatment with 10 μl of peptide solutions at various concentrations, microplates were incubated at 37° C. overnight and read on a ChroMate® 4300 Microplate Reader at 630 nm (GMI, Ramsey, Minn.). The medium was used as a blank where no bacteria should grow.

S. aureus USA300 LAC = format: cell-based, Staphylococcus aureus; conditions: USA300
Description: as §1, §2

A. baumannii B2367-12 = format: cell-based, Acinetobacter baumannii; conditions: B2367-12
Description: as §1, §2

P. aeruginosa PAO1 = format: cell-based, Pseudomonas aeruginosa; conditions: PAO1
Description: as §1, §2

E. cloacae B2366-12 = format: cell-based, Enterobacter cloacae; conditions: B2366-12
Description: as §1, §2

E. coli ATCC 25922 [1] = format: cell-based, Escherichia coli; conditions: ATCC 25922
Description: as §1, §2

ESKAPE pathogens = format: cell-based
Description: as §1, §2

[2] = Cytotoxicity of soluble peptide (MTS); format: cell-based; conditions: human, HaCaT cells; free peptide; read-out: 50% lethal concentration (LC50) to HaCaT cells
Description: In vitro spontaneously transformed keratinocytes from histologically normal human skin (HaCaT cells) from Fisher (Hampton, N.H.) (Cat # T0020001) were maintained in DMEM high glucose medium with 4 mM L-glutamine (HyClone, South Logan, Utah) and 100 U ml^−1 penicillin, 100 μg ml^−1 streptomycin (pen/strep, p/s) (Life Technologies, Carlsbad, Calif.), and 10% (v v^−1) inactivated fetal bovine serum (FBS, NyClone), DMEM with 10% FBS, p/s. Cells were grown in 5% CO2 at 37° C. and were detached from culturing dish at 100% confluency by treating with 0.025% trypsin-EDTA (NyClone), seeded (100,000 cells well^−1) in 24-well plates (Corning Life Science, Salt Lake City, Utah) and grown overnight in 200 μl of DMEM medium to reach a 70% confluency. The peptide-coated surfaces (1.0×1.0 cm) were placed in a 24-well plate DMEM with or without 10% FBS, p/s for 1 hour. Samples were taken out and 60 μl of CellTiter96® MTS were added. Plates were further incubated for another 2 hours at 37° C. Subsequently, 100 μl of the solution were placed in a clean 96-well plate to measure the absorbance at 492 nm on a ChroMate® reader (GMI). For comparison, the toxicity of the soluble peptides was also measured and they were treated in the same way as described above. The culture medium and a 0.2% SDS solution were used as negative and positive controls, respectively.

[3] = test system: human red blood cells (hRBC); format: cell-based; conditions: red cells of human
Description: Blood was obtained from the Blood Bank of the University of Nebraska Medical Center (UNMC) and washed three times (800 g, 10 minutes) with normal saline to remove plasma. A final solution containing 2% human red blood cells (hRBC) was then prepared in normal saline and used for the assay. 90 μl of this solution were added to 10 μl of serially diluted peptide solutions and incubated at 37° C. for 1 hour. It was then centrifuged at 15,700 g for 5 minutes on an Eppendorf® bench-top centrifuge 5415D. Aliquots of the supernatant (˜80 μl) were carefully transferred to a fresh 96-well microplate (Costar, Corning, N.Y.) and absorbance was read at 545 nm to detect the amount of hemoglobin released. Percent lysis was calculated based on the extent of hemoglobin released, where 100% release is assumed in the presence of 1% TRITON™ X-100 and 0% release is assumed in saline.

S. aureus USA300 [4] = format: cell-based, Staphylococcus aureus
Description: (§3) The antimicrobial activity of peptides was evaluated using a standard broth microdilution protocol. In brief, exponential phase bacteria at 10^6 CFU were incubated with serially diluted peptides overnight for ˜20 hours at 37° C. The plates were read on a ChroMate® 4300 Microplate Reader at 630 nm (GMI, Ramsey, Minn.).

E. coli ATCC 25922 [5] = format: cell-based, Escherichia coli; conditions: ATCC 25922, 20 h
Description: as §3

human red blood cells = experiment: Hemolytic ability (Example 3); format: cell-based; conditions: concentration that causes 50% hemolysis
Description: Hemolytic analysis of selected peptides was performed using an established protocol. Briefly, human blood cells (UNMC Blood Bank) were washed three times with phosphate buffer saline (PBS) and diluted to a 2% solution. After peptide treatment, incubation at 37° C. for one hour, and centrifugation at 13,000 rpm, aliquots of the supernatant were transferred to a fresh 96-well microplate. To assess peptide cytotoxicity, the amount of hemoglobin released was measured at 545 nm. The percent lysis was calculated by assuming 100% release when human blood cells were treated with 1% TRITON™ X-100, and 0% release when incubated with PBS buffer.

S. aureus USA300 [6] = experiment: Growth inhibition in TSB media (FIG. 15A); format: cell-based, Staphylococcus aureus; conditions: 3.1 μM (printed 3.1 LM), 37° C.
Description: FIGS. 15A and 15B show the growth inhibition (FIG. 15A) and propidium iodide-based membrane permeation (FIG. 15B) of S. aureus USA300 in TSB media by 3.1 μM of TetraF2W-RR and its single arginine variants (Table 8) at 37° C. with shaking at 100 rpm.
Fluorescence spectroscopy was also used to follow bacterial killing. In brief, μL of serially diluted 10× peptide concentrations were done in 96-well coming COSTAR microtiter plates. Propidium iodide at a fixed concentration of 20 μM per well was added to each well which was finally incubated with 88 μL of S. aureus USA300 (with a final OD600 0.1) with continuous shaking at 100 rpm with meander corner well shaking, 37° C. in a FLUOstar® Omega (BMG LABTECH Inc., NC) microplate reader. The plates were read every 5 minutes for a total duration of 2 hours with excitation and emission wavelengths at 584 nm and 620 nm, respectively.

S. aureus USA300 [7] = experiment: Live cell penetration experiment (FITC, confocal); format: cell-based, Staphylococcus aureus; conditions: peptide and FITC 12.5 μM
Description: The entrance of a fluorescent dye into live bacterial cells was followed by confocal microscopy (Mishra et al. (2015) RSC Advances 5:59758-59769). In short, S. aureus USA300 was grown to the exponential phase from the overnight culture. The cells were then washed twice with fresh 1×PBS (pH 7.2) and the final cell density was adjusted to 1×10^8 CFU/mL. 1500 μL of the culture was added to the chambers of cuvettes (borosilicate cover glass systems) with equimolar concentrations of TetraF2W-RK and fluorescein isothiocyanate FITC (12.5 μM). The samples were examined with a confocal laser scanning microscope (Zeiss 710) with a series of live time pictures taken at every 5 seconds for 5 minutes and the data were processed using Zen 2010 software.

S. aureus USA300 [8] = format: cell-based, Staphylococcus aureus; conditions: 12.5 μM
Description: Two types of experiments were conducted to evaluate the anti-biofilm activity of these peptides against S. aureus USA300 grown under a static condition for 24 hours to form established biofilms in presence of tryptic soy broth (TSB). The experiment was set up using a flat bottom, 96-well, polystyrene microtiter plates (Corning, COSTAR). In short, S. aureus USA300 (10^5 CFU/mL) in fresh TSB media was made from an exponentially growing culture. 200 μL of this bacterial culture was added to each well of the microtiter plates. The plates are then incubated at 37° C. for 24 hours to allow biofilm formation. Media was then carefully removed followed by washing with sterile 1×PBS to remove any unattached bacteria. Solution containing μL of 10× peptide solution and 180 μL of fresh TSB were added. The plates were again incubated at 37° C. for another 24 hours. To measure the extent of biofilm disruption by the peptides as a function of biofilm reduction, crystal violet staining was performed. Media was pipetted out and the wells were carefully washed with 200 μL of PBS to remove the loosely attached cells. Subsequently, 200 μL of 99% methanol was added for fixation and the plates were allowed to sit for 15 minutes. The plates were finally aspirated and dried. Lastly, staining was done with 200 μL of 1% crystal violet in water for 5 minutes. Excess stain was gently rinsed off with tap water, and plates were air-dried. Further, stains were solubilized in 200 μL of 33% glacial acetic acid followed by colorimetric measurement at 600 nm on a Chromate® microtiter plate reader. The amounts of biofilm growth with and without compound treatments were calculated.
In addition, live cell contents of the peptide acted biofilms was estimated by XTT [2,3-bis(2-methyloxy-4-nitro-5-sulfophenyl)-2H-tertazolium-5-carboxanilide]assay by following the manufacturer's instructions with modifications. A 10% XTT solution in TSB media was added to each well and the plates were again incubated for 2 hours at 37° C. Absorbance at 450 nm (only media with XTT containing wells served as the blank) was obtained using Chromate® microtiter plate reader. Percentage of biofilm reduction for the peptide was plotted assuming 100% biofilm growth is achieved on the bacterial wells without peptide treatment.

S. aureus USA300 [9] = experiment: Confocal microscopy of preformed biofilms (Example 3); format: cell-based, Staphylococcus aureus
Description: S. aureus USA300 (10^5 CFU/mL) was made from exponentially growing bacteria. 1800 μL was added to the chamber of cuvettes (Borosilicate cover glass systems), and was incubated for 37° C., 24 hours for biofilm formation. Media was then pipetted out and chambers were washed with 1×PBS to remove non-adhered cells. To disrupt the preformed biofilms, 200 μL of 10× stocks of the peptide was added followed by 1800 μL of TSB. Control cuvettes contained water instead of peptide. The cuvettes were again incubated for another 24 hours at 37° C. Subsequently, the supernatant was pipetted out and the chambers were washed with 1×PBS. For evaluation under confocal microscope the biofilms were stained with 10 μL of LIVE/DEAD® kit (Invitrogen Molecular Probes) according to the manufacturer's instructions. The samples were examined with a confocal laser scanning microscope (Zeiss 710) and the data processed using Zen 2010 software.

Structure (SMILES)	MIC EF (E. faecium ATCC51559)	MIC SA (S. aureus USA300 LAC)	MIC AB (A. baumannii B2367-12)	MIC PA (P. aeruginosa PAO1)	MIC ECl (E. cloacae B2366-12)	MIC EC (E. coli ATCC 25922 [1])	MIC range against almost all / most of the tested strains (ESKAPE pathogens)	CC50 at 1 hour [2]	50% hemolytic concentration (HL50) [3]	cell selectivity index (ratio of HL50 and MIC) (S. aureus USA300 [4]; HL50 human red blood cells / MIC S. aureus USA300)	S. aureus (MIC) (S. aureus USA300 [4]; USA300, 20 h)	E. coli (MIC) (E. coli ATCC 25922 [5])	HL50 (human red blood cells)	growth inhibition of S. aureus USA300 (S. aureus USA300 [6])	time to entry of FITC into bacteria after peptide treatment (S. aureus USA300 [7])	killing in preformed biofilms (XTT) (S. aureus USA300 [8])	killing in 24 hour preformed biofilms (LIVE/DEAD confocal) (S. aureus USA300 [9])
CC[C@H](C)[C@H](NC(=O)[C@H](CCCNC(=N)N)NC(=O)[C@H](CCC(N)=O)NC(=O)[C@@H](NC(=O)[C@@H](NC(=O)[C@H](CCCNC(=N)N)NC(=O)[C@H](CCCCN)NC(=O)[C@@H](N)Cc1ccccc1)[C@@H](C)CC)C(C)C)C(=O)N[C@@H](CCCCN)C(=O)N[C@@H](CC(=O)O)C(=O)N[C@@H](Cc1ccccc1)C(=O)N[C@@H](CC(C)C)C(=O)N[C@@H](CCCNC(=N)N)C(=O)N[C@@H](CC(N)=O)C(=O)N[C@@H](CC(C)C)C(=O)N[C@H](C(=O)N[C@@H](CS)C(=O)O)C(C)C [FK-16Cys] (H-FKRIVQRIKDFLRNLVC-OH; N-terminus and C-terminus assumed)	12.5 ± 0 µM (≈ 26.9 µg/mL)	18 ± 7.2 µM (≈ 38.7 µg/mL)	12.5 ± 0 µM (≈ 26.9 µg/mL)	>50 µM	50 ± 0 µM (≈ 107 µg/mL)	37.5 ± 17.6 µM (≈ 80.6 µg/mL)	12.5 to 50 µM	> 100 µM	~35 µM	–	–	–	–	–	–	–	–
CC(C)C[C@H](NC(=O)[C@H](Cc1c[nH]c2ccccc12)NC(=O)[C@H](Cc1c[nH]c2ccccc12)NC(=O)[C@@H](N)Cc1c[nH]c2ccccc12)C(=O)N[C@@H](CCCNC(=N)N)C(=O)N[C@@H](CCCNC(=N)N)C(=O)N[C@@H](CCCNC(=N)N)C(=O)N[C@@H](Cc1c[nH]c2ccccc12)C(N)=O [Peptide I7R, WWWLRRRW] (H-WWWLRRRW-NH2; N-terminus assumed)	–	–	–	–	–	–	–	–	–	48	3.1 µM	6.2 µM	150 µM	almost equally effective to the WT	28 s	80%	the majority of cells are red

Source: US20190048052A1, “ANTI-MICROBIAL PEPTIDES AND COATINGS” (Board of Regents of the University of Nebraska, priority 2016, published 2019)
